According to patent US8507411B2, “Neoglycorandomization and digitoxin analogs” (priority 2004, dated 2013):
Where two headings read alike, the source gives them in different places.

Legend:
A549 = experiment: High-throughput calcein AM cytotoxicity assay, A549; type: cell-based, human; conditions: read-out: IC50, A549
Excerpt: (§1) Standard errors are depicted with error bars.

[1] = system: nine human cancer cell lines and a mouse mammary normal epithelial control line; experiment: High-throughput calcein AM cytotoxicity assay, whole cell line panel; conditions: for cytotoxicity (in words): cell line panel, 72 h, calcein AM
Excerpt: In the assay, live cells were distinguished by the presence of a ubiquitous intracellular enzymatic activity which converts the non-fluorescent cell-permeable molecule calcein AM to the intensely fluorescent molecule calcein, which is retained within live cells. The IC50 value for each library member represents at least six replicates of dose-response experiments conducted over five concentrations using two-fold dilutions. […] Standard errors are depicted with error bars. Numerical values and corresponding error values can be found in Table 4. Du145: […]; MCF7: human breast carcinoma; HCT-116: human colon carcinoma, Hep3B: human liver carcinoma; SF-268: human CNS glioblastoma; SK-OV-3: human ovary adenocarcinoma; NCI-H460: human lung carcinoma; A549: human lung adenocarcinoma; NCI/ADR-RES: human breast carcinoma; NmuMG: mouse mammary normal epithelial.
Cell Culture: All cell lines except NmuMG were maintained in RPMI 1640 medium from InVitrogen (Cat No. 11875-085) supplemented with 10% w/v fetal bovine serum (FBS) from ICN (Cat No. 2916154) and penicillin-streptomycin (PS) (100 U/mL and 100 μg/mL) from InVitrogen (Cat No. 15140-122). NmuMG cells were maintained in DMEM medium from InVitrogen (Cat No. 11965-084) supplemented with 10% w/v fetal bovine serum (FBS) from ICN (Cat No. 2916154), 10 μg/ml insulin (InVitrogen Cat No 12585-014), and penicillin-streptomycin (PS) (100 U/mL and 100 μg/mL) from InVitrogen (Cat No. 15140-122). Cells were harvested by trypsinization using 0.25% w/v trypsin and 0.1% w/v EDTA from InVitrogen (Cat No. 15-050-057) and then counted in a hemocytometer in duplicate with better than 10% agreement in field counts. Cells were plated at a cell density of 10,000-15,000 cells/well of each Corning Costar 96-well black tissue culture treated microtiter plate (Fisher Cat No. 07-200-627). Cells were grown for 1 h at 37° C., with 5% CO2 in a humidified incubator to allow cell attachment to occur before compound addition.
Library Member Handling and Preparation for Cytotoxicity Assays: Library members were stored at −20° C. under dessicating conditions before the assay. Library member stocks (100×) were prepared in Corning Costar polypropylene 96-well V-bottom polypropylene microtiter plates (Fisher Cat No. 07-200-695). Five serial 1:2 dilutions were made with anhydrous DMSO at 100× the final concentration used in the assay.
Library Member Addition: The library member-containing plates were diluted 1:10 with complete cell culture media. The 10× stocks (10 μL) were added to the attached cells using a Biomek FX liquid handler (Beckman-Coulter). Library member stocks (10 μL) were added to 90 μL of cells in each plate to insure full mixing of stocks with culture media using a Beckman FX liquid handler with 96-well head.
Determination of Cytotoxicity: Cells were incubated with the library members for 72 h before fluorescence reading. Test plates were removed from the incubator and washed 1× in sterile PBS to remove serum containing calcium esterases. Calcein AM reagent (30 μL, […]) was added and the cells were incubated for 30 min at 37° C. Plates were read for emission using a fluorescein filter (excitation 485 nm, emission 535 nm).
IC50 Calculation: For each library member, at least six dose response experiments were conducted. […] To calculate IC50, percent inhibitions were plotted as a function of log [concentration] and then fit to a four-parameter logistic model that allowed for a variable Hill slope using XLfit 4.1.
Cytotoxicity Assays. All cell lines except NmuMG were maintained in RPMI 1640 medium supplemented with 10% w/v fetal bovine serum (FBS) and penicillin-streptomycin (PS) (100 U/mL and 100 μg/mL).

NCI-H460 = experiment: High-throughput calcein AM cytotoxicity assay, NCI-H460; type: cell-based, human; conditions: read-out: IC50, NCI-H460
Excerpt: as §1

Hep3B = experiment: High-throughput calcein AM cytotoxicity assay, Hep3B; type: cell-based, human; conditions: Hep 3B cells, read-out: IC50, Hep 3B
Excerpt: as §1

NmuMG = experiment: cells; type: cell-based, mouse
Outline: (§2)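 Cells were attached for 1 h, then exposed to five 2-fold dilutions of compound for 72 h. Viability is read as calcein AM conversion to fluorescent calcein (ex 485/em 535 nm). IC50 comes from a four-parameter logistic fit of ≥6 dose-response replicates; NmuMG was grown in DMEM with insulin, the others in RPMI/10% FBS.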

MCF7 = experiment: High-throughput calcein AM cytotoxicity assay, MCF7; type: cell-based, human; conditions: read-out: IC50, MCF7
Excerpt: as §1

HCT-116 = experiment: High-throughput calcein AM cytotoxicity assay, HCT-116; type: cell-based, human; conditions: read-out: IC50, HCT-116
Excerpt: as §1

SK-OV-3 = experiment: cells; type: cell-based, human
Outline: as §2

SF-268 = experiment: cells; type: cell-based, human
Outline: as §2

NCI/ADR-RES = experiment: cells; type: cell-based, human
Outline: as §2

Du145 = experiment: High-throughput calcein AM cytotoxicity assay, Du145; type: cell-based, human; conditions: read-out: IC50, Du145
Excerpt: as §1

Na+/K+-ATPase = molecular target: T1, Na+/K+-ATPase (Homo sapiens, UniProt P05023); experiment: Non-radioactive rubidium ion uptake assay, HEK-293 cells; type: cell-based; conditions: read-out: Na+/K+-ATPase Inhibition IC50
T1 construct: endogenous in cells; host or cells: HEK-293
Experimental: Na/K-ATPase Assays. Inhibition of Na^+/K^+-ATPase on HEK-293 cells and CHO-K1 cells by the library hits was determined by Aurora Biomed, Inc. using a high-throughput non-radioactive rubidium ion uptake assay. Experiments were conducted in duplicate using three different concentrations. Within each experiment, percent inhibition values at the three concentrations were expressed as the percent reduction of the maximum absorption signal observed for a 0 nM control. IC50 values were determined using the following formula: IC50=[(50−low %)/(high %−low %)]×(high conc.−low conc.)+low conc.
To assess how these structural modifications impact the ability of library members to inhibit Na^+/K^+-ATPases, a fundamental activity of cardiac glycosides (Paula, S., et al., (2005) Biochemistry 44, 498-510), library hits 5β, 15β, 23β, 27β, 33β, 40β, and digitoxin (1) were submitted to a non-radioactive rubidium uptake assay to gauge Na^+/K^+-ATPase inhibition in both […] human embryonic kidney cells and CHO-K1 hamster ovary cells (Gill, S. et al., (2004) ASSAY and Drug Development Technologies 2, 535-542).

[2] = NmuMG mouse mammary normal epithelial control line; read-out: IC50, NmuMG
[3] = SK-OV-3 cells, read-out: IC50, SK-OV-3
[4] = SF-268 cells, read-out: IC50, SF-268
[5] = NCI/ADR-RES cells, read-out: IC50, NCI/ADR-RES
[6] = read-out: IC50, SK-OV-3, SK-OV-3 cells
[7] = read-out: IC50, SF-268, SF-268 cells
[8] = read-out: IC50, NCI/ADR-RES, NCI/ADR-RES cells
[9] = Mus musculus, read-out: IC50, NmuMG

Compound	IC50 (A549; A549 cells) [nM]	cytotoxicity (in words) [1]	IC50 (NCI-H460; NCI-H460 cells) [nM]	IC50 (Hep3B) [nM]	IC50 (NmuMG; [2]) [nM]	IC50 (MCF7; MCF7 cells) [nM]	IC50 (HCT-116; HCT-116 cells) [nM]	IC50 (SK-OV-3; [3]) [nM]	IC50 (SF-268; [4]) [nM]	IC50 (NCI/ADR-RES; [5]) [nM]	IC50 (Du145; Du145 cells) [nM]	other results
CON([C@H]1CC[C@@]2(C)[C@H](CC[C@@H]3[C@@H]2CC[C@]2(C)[C@@H](C4=CC(=O)OC4)CC[C@]32O)C1)[C@@H]1O[C@H](CO)[C@@H](O)[C@H](O)[C@H]1O [4β, D-glucoside]	2900	relatively inactive	3500	2400	3100	10000	3800	6000	4500	1900	8200	–
CONC1CC[C@]2(C)C3CC[C@]4(C)[C@@H](C5=CC(=O)OC5)CC[C@]4(O)C3CC[C@@H]2C1 (stereo partly drawn) [3α, S—C(3) aglycon]	8300	–	2400	–	–	13000	9000	–	–	–	2900	IC50 ([1]; Homo sapiens): > 25000 nM; IC50 (NmuMG; read-out: IC50, NmuMG; NmuMG mouse mammary normal epithelial control line): > 25000 nM; IC50 (SK-OV-3; [6]): 3000 nM; IC50 (SF-268; [7]): 3500 nM; IC50 (NCI/ADR-RES; [8]): 5100 nM
CON(C1CCC2(C)C(CCC3C2CCC2(C)C(C4=CC(=O)OC4)CCC32O)C1)C1OC(COC2OC(CO)C(O)C(O)C2O)C(O)C(O)C1O (stereo not drawn) [35β, melibioside]	> 25000	–	29000	26000	> 25000	> 25000	> 25000	15000	> 25000	16000	27000	IC50 ([1]; all cell lines): > 25000 nM
CONC1CC[C@]2(C)C3CC[C@]4(C)[C@@H](C5=CC(=O)OC5)CC[C@]4(O)C3CC[C@@H]2C1 (stereo partly drawn) [3β, R—C(3)aglycon]	1200	–	700	1400	–	1800	1200	–	–	–	1300	IC50 ([1]; Homo sapiens, read-out: average IC50): ~1100 nM; IC50 (NmuMG; [9]): > 25000 nM; IC50 (SK-OV-3; [6]): 900 nM; IC50 (SF-268; [7]): 1000 nM; IC50 (NCI/ADR-RES; [8]): 710 nM
CON([C@H]1CC[C@@]2(C)[C@H](CC[C@@H]3[C@@H]2CC[C@]2(C)[C@@H](C4=CC(=O)OC4)CC[C@]32O)C1)[C@H]1OC[C@H](O)[C@H](O)[C@H]1O [32β, L-arabinoside]	1700	relatively inactive	720	1200	400	2200	300	3000	1000	650	1100	–
CON(C1CCC2(C)C(CCC3C2CCC2(C)C(C4=CC(=O)OC4)CCC32O)C1)C1OCC(O)C(O)C1O [15β, D-lyxoside]	–	significantly more potent than digitoxin against some cell lines	–	–	–	–	–	–	–	–	–	IC50 (A549; Homo sapiens, A549, A549 cells): 140 nM; IC50 (NCI-H460; Homo sapiens, NCI-H460, NCI-H460 cells): 90 nM; IC50 (Hep3B; Homo sapiens, Hep3B): 90 nM; IC50 (NmuMG; [9]): 69 nM; IC50 (MCF7; Homo sapiens, MCF7, MCF7 cells): 230 nM; IC50 (HCT-116; Homo sapiens, HCT-116, HCT-116 cells): 170 nM; IC50 (SK-OV-3; Homo sapiens, SK-OV-3, read-out: IC50, SK-OV-3, SK-OV-3 cells): 160 nM; IC50 (SF-268; Homo sapiens, SF-268, read-out: IC50, SF-268, SF-268 cells): 90 nM; IC50 (NCI/ADR-RES; Homo sapiens, NCI/ADR-RES, read-out: IC50, NCI/ADR-RES, NCI/ADR-RES cells): 75 nM; IC50 (Na+/K+-ATPase): > 300000 nM; IC50 (Du145; Homo sapiens, DU-145, Du145 cells): 70 nM
6-deoxy-6-azido-D-mannoside [41β]	1700	not active	2700	1800	> 25000	3300	6000	2100	2500	840	2000	–
